Laboratory results taken from the OPERA property sets (Mansouri et al. 2018).

With `c1ccc2c(c1)Cc1ccccc1-2` the boiling point was 295 °C, the log10 Henry constant (atm·m³/mol) was -4.02 and the log10 Koa was 6.79. The log10 Koc (L/kg) was 3.7, the log10 biodegradation half-life (days) was 1.64 and the log10 vapour pressure (mmHg) was -3.22. For the same molecule, the melting point was 115 °C and the ready biodegradability was “not readily biodegradable”.
`O=C(O)c1cccc(C(F)(F)F)c1` showed a boiling point of 238 °C and a melting point of 106 °C.
For `c1ccc2c(c1)ccc1cc3c(ccc4ccccc43)cc12`, the boiling point was 524 °C, the log10 Koc (L/kg) was 6.22 and the log10 biodegradation half-life (days) was 2.62. The log10 vapour pressure (mmHg) was -9.02, the melting point was 270 °C and the ready biodegradability was “not readily biodegradable”.
For `CCCCCCCCCO`, the ready biodegradability was “readily biodegradable”.
In the case of `CCCC=O`, the log10 Henry constant (atm·m³/mol) was -3.94, the log10 Koa was 3.39 and the log10 vapour pressure (mmHg) was 2.05. The melting point was -99 °C and the ready biodegradability was “readily biodegradable”.
In the case of `Cc1cc(O)c(C(C)(C)C)cc1C(C)(C)C`, the boiling point was 282 °C and the melting point was 62.1 °C.
For `CC(Br)C(C)(C)Br` (configuration not stated), the melting point was 7 °C.
Molecule `CO[C@H]1O[C@H](CNC(=O)N(CCCl)N=O)[C@@H](O)[C@H](O)[C@H]1O` has a melting point of 111 °C.
`Nc1ccccc1C(F)(F)F` gave a boiling point of 187 °C and a melting point of 35.5 °C.
Molecule `CC1COC(=O)O1` (configuration not stated) has a boiling point of 242 °C, a log10 vapour pressure (mmHg) of -1.35 and a melting point of -48.8 °C. The ready biodegradability was “readily biodegradable”.
Molecule `Cc1cc2c(cc1S(N)(=O)=O)S(=O)(=O)CCC2` has a melting point of 236 °C.
`O=C(CCl)C(Cl)Cl` showed a boiling point of 172 °C.
With `Clc1ccc(Oc2ccccc2)cc1Cl` the log10 vapour pressure (mmHg) was -3.19.
`NCc1ccccc1Sc1ccccc1CO` showed a melting point of 97 °C.
`c1ccc(CNCc2ccccc2)cc1` showed a log10 vapour pressure (mmHg) of -3.1 and a melting point of -26 °C.
For `CC1=NCCS1`, the boiling point was 145 °C and the melting point was -101 °C.
For `Sc1ncc[nH]1`, the melting point was 230 °C.
In the case of `CCOc1c(N2CCOCC2)cnn(C)c1=O`, the melting point was 90 °C.
Work on `CCCCOC(C)=O` yielded a boiling point of 126 °C, a log10 Henry constant (atm·m³/mol) of -3.55 and a log10 Koa of 3.65. The log10 vapour pressure (mmHg) was 1.06 and the ready biodegradability was “readily biodegradable”.
For `CC(C)COc1ccc2ccccc2c1`, the melting point was 31 °C and the ready biodegradability was “not readily biodegradable”.
`COc1ccccc1Cl` showed a boiling point of 198 °C, a log10 vapour pressure (mmHg) of -0.623 and a melting point of -26.8 °C.
In the case of `CCC(=O)OC(C)CC` (configuration not stated), the boiling point was 133 °C.
For `O=C/C(Cl)=C(/Cl)C(=O)O`, the melting point was 127 °C.
Molecule `C#CCCCCC` has a boiling point of 99.7 °C, a log10 vapour pressure (mmHg) of 1.72 and a melting point of -81 °C.
With `FC(F)C(F)(F)OCC(Cn1cncn1)c1ccc(Cl)cc1Cl` (configuration not stated) the log10 vapour pressure (mmHg) was -5.87 and the melting point was 6 °C.
`C#CCCCCCCCC#C` showed a melting point of -17 °C.
Work on `CCC(=O)c1ccc(Cl)cc1` yielded a melting point of 37.3 °C.
`Oc1ccc([C@H]2COc3cc(O)ccc3C2)cc1` gave a melting point of 190 °C.
For `Cc1ccc2ccccc2n1`, the boiling point was 246 °C, the log10 vapour pressure (mmHg) was -2.02 and the melting point was -1.5 °C.
With `CCCCCCCCCCC1CCCC1` the boiling point was 279 °C and the melting point was -22 °C.
In the case of `CCN1CCCCC1`, the boiling point was 131 °C.
Molecule `CC/C=C\CC=O` has a boiling point of 121 °C.
Molecule `c1ccc(COc2ccccc2)cc1` has a boiling point of 286 °C, a log10 vapour pressure (mmHg) of -2.2 and a melting point of 40 °C.
In the case of `CC(=O)O[C@]1(C(C)=O)CC[C@H]2[C@@H]3C[C@H](C(F)(F)F)C4=CC(=O)CC[C@]4(C)[C@H]3CC[C@@]21C`, the melting point was 206 °C.
For `CCC(CC)COCCC(=O)O`, the boiling point was 343 °C and the melting point was 32.5 °C.
`Clc1cncc(Cl)c1` gave a melting point of 66 °C.
For `Brc1ccc(I)cc1`, the boiling point was 252 °C and the melting point was 92 °C.
With `CC(=O)OC[C@H]1OC(OC(C)=O)[C@H](OC(C)=O)[C@@H](OC(C)=O)[C@@H]1OC(C)=O` (some centres not stated) the melting point was 124 °C.
With `CCOC(=O)C#N` the boiling point was 116 °C.
For `O=[N+]([O-])c1ccccc1O`, the boiling point was 216 °C, the log10 Henry constant (atm·m³/mol) was -4.89 and the log10 vapour pressure (mmHg) was -0.947. For the same molecule, the melting point was 44.8 °C and the ready biodegradability was “not readily biodegradable”.
`O=CCC=O` showed a melting point of 72 °C.
Molecule `CC#CCO` has a boiling point of 148 °C and a melting point of -2.2 °C.
For `CNCCc1c[nH]c2ccccc12`, the melting point was 88 °C.
With `O=S(=O)(Cc1ccccc1)Cc1ccccc1` the melting point was 152 °C.
Work on `c1ccc(Nc2ccccn2)nc1` yielded a boiling point of 308 °C and a melting point of 90.5 °C.
`CC(CN1c2ccccc2Sc2ccccc21)N(C)C` (configuration not stated) showed a melting point of 60 °C.
`NCCN` gave a boiling point of 117 °C, a log10 Henry constant (atm·m³/mol) of -8.76 and a log10 vapour pressure (mmHg) of 1.08. The melting point was 11.1 °C and the ready biodegradability was “readily biodegradable”.
With `C=CCCCC(=O)O` the boiling point was 203 °C and the melting point was -37 °C.
With `C#CC(O)CCC` (configuration not stated) the boiling point was 142 °C and the melting point was -80 °C.
`O=[N+]([O-])c1cc(I)c(O)c(I)c1` gave a melting point of 157 °C.
In the case of `Cc1c(C)c(Br)c(Br)c(Br)c1Br`, the boiling point was 374 °C and the melting point was 262 °C.
For `Nc1ccc(-c2ccc(N)c(Cl)c2)cc1Cl`, the boiling point was 368 °C, the log10 Koc (L/kg) was 4.35 and the melting point was 132 °C. For the same molecule, the ready biodegradability was “not readily biodegradable”.
Work on `CNC(=O)ON=C(C)C(C)SC` (configuration not stated) yielded a log10 vapour pressure (mmHg) of -4.1 and a melting point of 25 °C.
With `CC(=O)CC(C)C` the boiling point was 116 °C, the log10 vapour pressure (mmHg) was 1.3 and the melting point was -84 °C. For the same molecule, the ready biodegradability was “readily biodegradable”.
For `CCOc1ccccc1O`, the boiling point was 217 °C and the melting point was 29 °C.
